Laboratory results taken from a compilation of properties of binary mixtures (doi:10.1021/acs.jpcb.5b11900).

Experiment: xn = mol fraction of the nth substance listed
Conditions: 101 kPa

CC[NH+](CC)CC.O=[N+]([O-])[O-] + CC[NH3+].O=[N+]([O-])[O-]
electrical conductivity (293.15 K, x1 = 0.0499): 1.67 S/m
viscosity (293.15 K, x1 = 0.0499): 46.6 mPa·s
electrical conductivity (293.15 K, x1 = 0.0999): 1.45 S/m
viscosity (293.15 K, x1 = 0.0999): 51.2 mPa·s
electrical conductivity (293.15 K, x1 = 0.3995): 0.71 S/m
viscosity (293.15 K, x1 = 0.3995): 90.2 mPa·s
electrical conductivity (293.15 K, x1 = 0.4472): 0.62 S/m
viscosity (293.15 K, x1 = 0.4472): 100 mPa·s
electrical conductivity (293.15 K, x1 = 0.5003): 0.56 S/m
viscosity (293.15 K, x1 = 0.5003): 108.1 mPa·s
electrical conductivity (293.15 K, x1 = 0.5485): 0.56 S/m
viscosity (293.15 K, x1 = 0.5485): 105.4 mPa·s
electrical conductivity (298.15 K, x1 = 0.0499): 1.96 S/m
viscosity (298.15 K, x1 = 0.0499): 39 mPa·s
electrical conductivity (298.15 K, x1 = 0.0999): 1.71 S/m
viscosity (298.15 K, x1 = 0.0999): 42.5 mPa·s
electrical conductivity (298.15 K, x1 = 0.1997): 1.36 S/m
viscosity (298.15 K, x1 = 0.1997): 51.1 mPa·s
electrical conductivity (298.15 K, x1 = 0.25): 1.16 S/m
viscosity (298.15 K, x1 = 0.25): 56.2 mPa·s
electrical conductivity (298.15 K, x1 = 0.2993): 1.02 S/m
viscosity (298.15 K, x1 = 0.2993): 62.4 mPa·s
electrical conductivity (298.15 K, x1 = 0.3475): 0.95 S/m
viscosity (298.15 K, x1 = 0.3475): 66.9 mPa·s
electrical conductivity (298.15 K, x1 = 0.3995): 0.85 S/m
viscosity (298.15 K, x1 = 0.3995): 71.8 mPa·s
electrical conductivity (298.15 K, x1 = 0.4472): 0.75 S/m
viscosity (298.15 K, x1 = 0.4472): 79.3 mPa·s
electrical conductivity (298.15 K, x1 = 0.5003): 0.68 S/m
viscosity (298.15 K, x1 = 0.5003): 85.2 mPa·s
electrical conductivity (298.15 K, x1 = 0.5485): 0.68 S/m
viscosity (298.15 K, x1 = 0.5485): 83.1 mPa·s
electrical conductivity (303.15 K, x1 = 0.0499): 2.27 S/m
viscosity (303.15 K, x1 = 0.0499): 32.9 mPa·s
electrical conductivity (303.15 K, x1 = 0.0999): 1.99 S/m
viscosity (303.15 K, x1 = 0.0999): 35.7 mPa·s
electrical conductivity (303.15 K, x1 = 0.149): 1.77 S/m
viscosity (303.15 K, x1 = 0.149): 37.9 mPa·s
electrical conductivity (303.15 K, x1 = 0.1997): 1.59 S/m
viscosity (303.15 K, x1 = 0.1997): 42.5 mPa·s
electrical conductivity (303.15 K, x1 = 0.25): 1.36 S/m
viscosity (303.15 K, x1 = 0.25): 46.5 mPa·s
electrical conductivity (303.15 K, x1 = 0.2993): 1.2 S/m
viscosity (303.15 K, x1 = 0.2993): 51.4 mPa·s
electrical conductivity (303.15 K, x1 = 0.3995): 1.01 S/m
viscosity (303.15 K, x1 = 0.3995): 58.5 mPa·s
electrical conductivity (303.15 K, x1 = 0.4472): 0.9 S/m
viscosity (303.15 K, x1 = 0.4472): 64.3 mPa·s
electrical conductivity (303.15 K, x1 = 0.5003): 0.82 S/m
viscosity (303.15 K, x1 = 0.5003): 68.8 mPa·s
electrical conductivity (303.15 K, x1 = 0.5485): 0.81 S/m
viscosity (303.15 K, x1 = 0.5485): 67 mPa·s
electrical conductivity (308.15 K, x1 = 0.0499): 2.6 S/m
viscosity (308.15 K, x1 = 0.0499): 28.1 mPa·s
electrical conductivity (308.15 K, x1 = 0.0999): 2.29 S/m
viscosity (308.15 K, x1 = 0.0999): 30.3 mPa·s
electrical conductivity (308.15 K, x1 = 0.149): 2.05 S/m
viscosity (308.15 K, x1 = 0.149): 32.1 mPa·s
electrical conductivity (308.15 K, x1 = 0.1997): 1.84 S/m
viscosity (308.15 K, x1 = 0.1997): 35.7 mPa·s
electrical conductivity (308.15 K, x1 = 0.25): 1.58 S/m
viscosity (308.15 K, x1 = 0.25): 39 mPa·s
electrical conductivity (308.15 K, x1 = 0.2993): 1.4 S/m
viscosity (308.15 K, x1 = 0.2993): 42.8 mPa·s
electrical conductivity (308.15 K, x1 = 0.3475): 1.31 S/m
viscosity (308.15 K, x1 = 0.3475): 45.4 mPa·s
electrical conductivity (308.15 K, x1 = 0.3995): 1.18 S/m
viscosity (308.15 K, x1 = 0.3995): 48.3 mPa·s
electrical conductivity (308.15 K, x1 = 0.4472): 1.06 S/m
viscosity (308.15 K, x1 = 0.4472): 52.8 mPa·s
electrical conductivity (308.15 K, x1 = 0.5003): 0.96 S/m
viscosity (308.15 K, x1 = 0.5003): 56.3 mPa·s
electrical conductivity (308.15 K, x1 = 0.5485): 0.96 S/m
viscosity (308.15 K, x1 = 0.5485): 54.7 mPa·s
electrical conductivity (313.15 K, x1 = 0.0499): 2.96 S/m
viscosity (313.15 K, x1 = 0.0499): 24.1 mPa·s
electrical conductivity (313.15 K, x1 = 0.0999): 2.61 S/m
viscosity (313.15 K, x1 = 0.0999): 26 mPa·s
electrical conductivity (313.15 K, x1 = 0.149): 2.35 S/m
viscosity (313.15 K, x1 = 0.149): 27.7 mPa·s
electrical conductivity (313.15 K, x1 = 0.1997): 2.12 S/m
viscosity (313.15 K, x1 = 0.1997): 30.7 mPa·s
electrical conductivity (313.15 K, x1 = 0.25): 1.81 S/m
viscosity (313.15 K, x1 = 0.25): 33 mPa·s
electrical conductivity (313.15 K, x1 = 0.2993): 1.63 S/m
viscosity (313.15 K, x1 = 0.2993): 36.1 mPa·s
electrical conductivity (313.15 K, x1 = 0.3475): 1.52 S/m
viscosity (313.15 K, x1 = 0.3475): 38.5 mPa·s
electrical conductivity (313.15 K, x1 = 0.5003): 1.13 S/m
viscosity (313.15 K, x1 = 0.5003): 47.1 mPa·s
electrical conductivity (313.15 K, x1 = 0.5485): 1.12 S/m
viscosity (313.15 K, x1 = 0.5485): 45.8 mPa·s
electrical conductivity (318.15 K, x1 = 0.0499): 3.33 S/m
viscosity (318.15 K, x1 = 0.0499): 21 mPa·s
electrical conductivity (318.15 K, x1 = 0.0999): 2.95 S/m
viscosity (318.15 K, x1 = 0.0999): 22.6 mPa·s
electrical conductivity (318.15 K, x1 = 0.149): 2.66 S/m
viscosity (318.15 K, x1 = 0.149): 23.7 mPa·s
electrical conductivity (318.15 K, x1 = 0.1997): 2.41 S/m
viscosity (318.15 K, x1 = 0.1997): 26 mPa·s
electrical conductivity (318.15 K, x1 = 0.25): 2.07 S/m
viscosity (318.15 K, x1 = 0.25): 28.2 mPa·s
electrical conductivity (318.15 K, x1 = 0.2993): 1.86 S/m
viscosity (318.15 K, x1 = 0.2993): 30.6 mPa·s
electrical conductivity (318.15 K, x1 = 0.3475): 1.74 S/m
viscosity (318.15 K, x1 = 0.3475): 32.3 mPa·s
electrical conductivity (318.15 K, x1 = 0.3995): 1.58 S/m
viscosity (318.15 K, x1 = 0.3995): 34.1 mPa·s
electrical conductivity (318.15 K, x1 = 0.4472): 1.41 S/m
viscosity (318.15 K, x1 = 0.4472): 36.9 mPa·s
electrical conductivity (318.15 K, x1 = 0.5003): 1.3 S/m
viscosity (318.15 K, x1 = 0.5003): 39.1 mPa·s
electrical conductivity (318.15 K, x1 = 0.5485): 1.29 S/m
viscosity (318.15 K, x1 = 0.5485): 37.9 mPa·s
electrical conductivity (323.15 K, x1 = 0.0499): 3.73 S/m
viscosity (323.15 K, x1 = 0.0499): 18.4 mPa·s
electrical conductivity (323.15 K, x1 = 0.149): 2.99 S/m
viscosity (323.15 K, x1 = 0.149): 20.6 mPa·s
electrical conductivity (323.15 K, x1 = 0.1997): 2.71 S/m
viscosity (323.15 K, x1 = 0.1997): 22.5 mPa·s
electrical conductivity (323.15 K, x1 = 0.25): 2.34 S/m
viscosity (323.15 K, x1 = 0.25): 24.2 mPa·s
electrical conductivity (323.15 K, x1 = 0.2993): 2.11 S/m
viscosity (323.15 K, x1 = 0.2993): 26.3 mPa·s
electrical conductivity (323.15 K, x1 = 0.3475): 1.97 S/m
viscosity (323.15 K, x1 = 0.3475): 27.6 mPa·s
electrical conductivity (323.15 K, x1 = 0.4472): 1.61 S/m
viscosity (323.15 K, x1 = 0.4472): 31.3 mPa·s
electrical conductivity (323.15 K, x1 = 0.5485): 1.48 S/m
viscosity (323.15 K, x1 = 0.5485): 32.1 mPa·s
viscosity (328.15 K, x1 = 0.0499): 16.3 mPa·s
viscosity (328.15 K, x1 = 0.0999): 17.3 mPa·s
viscosity (328.15 K, x1 = 0.1997): 19.7 mPa·s
viscosity (328.15 K, x1 = 0.25): 21 mPa·s
viscosity (328.15 K, x1 = 0.2993): 22.8 mPa·s
viscosity (328.15 K, x1 = 0.3475): 23.9 mPa·s
viscosity (328.15 K, x1 = 0.4472): 26.9 mPa·s
viscosity (333.15 K, x1 = 0.0499): 14.4 mPa·s
viscosity (333.15 K, x1 = 0.0999): 15.3 mPa·s
viscosity (333.15 K, x1 = 0.149): 16.1 mPa·s
viscosity (333.15 K, x1 = 0.25): 18.4 mPa·s
viscosity (333.15 K, x1 = 0.2993): 19.9 mPa·s
viscosity (333.15 K, x1 = 0.3475): 21 mPa·s
viscosity (333.15 K, x1 = 0.3995): 22 mPa·s
viscosity (333.15 K, x1 = 0.4472): 23.5 mPa·s
viscosity (338.15 K, x1 = 0.0499): 12.9 mPa·s
viscosity (338.15 K, x1 = 0.0999): 13.7 mPa·s
viscosity (338.15 K, x1 = 0.149): 14.2 mPa·s
viscosity (338.15 K, x1 = 0.1997): 15.2 mPa·s
viscosity (338.15 K, x1 = 0.25): 16.3 mPa·s
viscosity (338.15 K, x1 = 0.3475): 18.2 mPa·s
viscosity (338.15 K, x1 = 0.3995): 19 mPa·s
viscosity (338.15 K, x1 = 0.5003): 21.2 mPa·s
viscosity (338.15 K, x1 = 0.5485): 20.5 mPa·s
viscosity (343.15 K, x1 = 0.0999): 12.3 mPa·s
viscosity (343.15 K, x1 = 0.149): 12.7 mPa·s
viscosity (343.15 K, x1 = 0.1997): 13.5 mPa·s
viscosity (343.15 K, x1 = 0.25): 14.5 mPa·s
viscosity (343.15 K, x1 = 0.3475): 16.1 mPa·s
viscosity (343.15 K, x1 = 0.3995): 16.8 mPa·s
viscosity (343.15 K, x1 = 0.4472): 17.8 mPa·s
viscosity (343.15 K, x1 = 0.5003): 19.3 mPa·s
viscosity (343.15 K, x1 = 0.5485): 17.9 mPa·s
viscosity (348.15 K, x1 = 0.0499): 10.5 mPa·s
viscosity (348.15 K, x1 = 0.149): 11.4 mPa·s
viscosity (348.15 K, x1 = 0.1997): 12.1 mPa·s
viscosity (348.15 K, x1 = 0.25): 13 mPa·s
viscosity (348.15 K, x1 = 0.3475): 14.3 mPa·s
viscosity (348.15 K, x1 = 0.3995): 14.9 mPa·s
viscosity (353.15 K, x1 = 0.0999): 9.6 mPa·s
viscosity (353.15 K, x1 = 0.149): 10.4 mPa·s
viscosity (353.15 K, x1 = 0.1997): 11 mPa·s
viscosity (353.15 K, x1 = 0.25): 11.7 mPa·s
viscosity (353.15 K, x1 = 0.3475): 13 mPa·s
viscosity (353.15 K, x1 = 0.3995): 13.5 mPa·s
viscosity (353.15 K, x1 = 0.4472): 14.2 mPa·s
